One experiment deals with P70S6K (T412E mutant) (Homo sapiens (Human), UniProt P23443, T412E). In words: P70S6K enzyme assay. The class given is biochemical. As to conditions: 24 μM ATP. The procedure:
P70S6K inhibitor compounds were diluted and plated in 96 well plates. A reaction mixture including the following components was then added to the compound plate to initiate the enzyme reaction; P70S6K (3 nM, T412E mutant, Millipore) was mixed with 24 μM ATP in an assay buffer containing 100 mM Hepes (pH 7.5), 5 mM MgCl2, 1 mM DTT, 0.015% Brij and 1 μM of the substrate peptide FITC-AHA-AKRRRLSSLRA-OH (derived from the S6 ribosomal protein sequence, FITC=fluorescein isothiocyanate, AHA=6-aminohexanoic acid). The reaction was incubated for 90 min at 25° C., before the addition of 10 mM EDTA to stop the reaction. The proportion of substrate and product (phosphorylated) peptide was analysed on a Caliper Life Sciences Lab Chip 3000, using a pressure of −1.4 psi, and upstream and downstream voltages of −3000 and −700 respectively. Product peaks were resolved before substrate peaks on the resulting chromatograms.

In a further experiment the target is His-AKT (Full Length) (Homo sapiens (Human), UniProt P31749). Nature of the experiment: AKT enzyme assay. The class given is biochemical. As to conditions: 160 uM ATP. The procedure:
A TTP Mosquito liquid handling instrument was used to place 125 nl of the appropriate concentration of inhibitor in 100% DMSO (for a dose response curve calculation) into each well of a 384-well plate. To this reaction components were added to a final volume of 12.5 μl: • 0.1 ng/μl His-AKT (Full Length), (Invitrogen, Part # P2999, Lot #641228C). • 160 uM ATP (Fluka, 02055) • 1 mM DTT (Sigma, D0632) • 1 mM MgCl2 (Sigma, M1028) • 1 μM substrate peptide (sequence FITC-AHA-GRPRTSSFAEG-NH2), synthesized by Tufts Peptide Synthesis service. • 100 mM HEPES pH 7.5 (Calbiochem, 391338) • 0.015% Brij-35 (Sigma, B4184)
The reaction was incubated for 90 min at 25 C., and then stopped by the addition of 70 μl of Stop buffer (100 mM HEPES pH 7.5, 0.015% Brij-35, 10 mM EDTA (Sigma, E7889)).
The plate was read on a Caliper LC 3000 in an Off-Chip mobility shift assay format, using the following parameters for a 12-sipper chip: screening pressure −2.3 psi, upstream voltage −500, and downstream voltage −3000. These conditions caused unphosphorylated substrate and phosphorylated product peptide to resolve as separate peaks allowing direct measurement of percentage of conversion of substrate to product.
The percent conversion was plotted against concentration of inhibitor to produce a sigmoidal dose response curve, from which an IC50 was calculated.

Here are results for 2 compounds from patent US9867826B2, “Heterocycles as modulators of kinase activity” (Merck Patent GmbH, priority 2013, dated 2018).

His-AKT (Full Length), sequence (P31749 whole entry): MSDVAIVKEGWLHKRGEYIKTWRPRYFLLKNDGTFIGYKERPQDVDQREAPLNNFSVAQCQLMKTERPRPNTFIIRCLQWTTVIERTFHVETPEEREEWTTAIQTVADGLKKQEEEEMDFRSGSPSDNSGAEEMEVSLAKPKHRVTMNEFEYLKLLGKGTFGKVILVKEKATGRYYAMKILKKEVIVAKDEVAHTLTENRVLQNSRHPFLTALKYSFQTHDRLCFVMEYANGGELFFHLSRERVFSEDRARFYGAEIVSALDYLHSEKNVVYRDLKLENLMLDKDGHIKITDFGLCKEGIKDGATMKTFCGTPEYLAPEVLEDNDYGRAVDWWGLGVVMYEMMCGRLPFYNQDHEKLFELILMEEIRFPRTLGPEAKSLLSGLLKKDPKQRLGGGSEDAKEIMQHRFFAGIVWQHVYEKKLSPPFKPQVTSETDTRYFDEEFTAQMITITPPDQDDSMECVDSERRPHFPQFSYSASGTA
P70S6K (T412E mutant), sequence (P23443 whole entry T412E): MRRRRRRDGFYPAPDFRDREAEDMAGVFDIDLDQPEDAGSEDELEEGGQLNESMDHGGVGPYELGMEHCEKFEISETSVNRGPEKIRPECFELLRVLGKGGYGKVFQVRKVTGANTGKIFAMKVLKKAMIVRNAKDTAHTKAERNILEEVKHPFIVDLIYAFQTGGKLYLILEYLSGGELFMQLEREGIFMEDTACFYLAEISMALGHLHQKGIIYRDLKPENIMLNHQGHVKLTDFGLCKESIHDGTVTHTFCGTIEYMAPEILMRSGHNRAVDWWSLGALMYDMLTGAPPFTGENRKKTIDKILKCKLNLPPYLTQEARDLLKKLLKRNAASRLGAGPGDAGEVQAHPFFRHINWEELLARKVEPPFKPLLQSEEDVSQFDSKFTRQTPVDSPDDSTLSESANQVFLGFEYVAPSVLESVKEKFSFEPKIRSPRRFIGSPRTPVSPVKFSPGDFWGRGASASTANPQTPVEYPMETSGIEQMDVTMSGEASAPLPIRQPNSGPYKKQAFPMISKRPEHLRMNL

Regarding `Cc1cc(-c2cn(CCN3CCC3)c(C3CCN(c4ncnc(N)c4C(N)=O)CC3(F)F)n2)ccc1F` (stereo not shown) [Compound 49, 4-Amino-6-{4-[1-(2-azetidin-1-yl-ethyl)-4-(4-fluoro-3-methyl-phenyl)-1H-imidazol-2-yl]-3,3-difluoro-piperidin-1-yl}-pyrimidine-5-carboxylic acid amide], the IC50 against P70S6K (T412E mutant) and on His-AKT (Full Length) was > 10 nM throughout.

As to `Cc1cc(-c2cn(CCN3CCC3)c(C3CCN(c4ncnc(N)c4C(C)C)CC3(F)F)n2)ccc1F` (stereo not shown) [Compound 50, 6-{4-[1-(2-Azetidin-1-yl-ethyl)-4-(4-fluoro-3-methyl-phenyl)-1H-imidazol-2-yl]-3,3-difluoro-piperidin-1-yl}-5-isopropyl-pyrimidin-4-ylamine], the IC50 at P70S6K (T412E mutant) and at His-AKT (Full Length) was 1 to 10 nM throughout.
